Results as given in ChEMBL document CHEMBL3864171, “Pyridyl Isonicotinamide Inhibitors of RAF Kinase” (ACS Med Chem Lett, 2016).

These compounds were tested against RAF proto-oncogene serine/threonine-protein kinase (Homo sapiens, UniProt P04049) (assay: Inhibition of 1 to 324 residues truncated c-Raf (unknown origin) expressed in baculovirus infected Sf9 insect cells using full length biotinylated MEK1 ATP binding site K97R mutant as substrate preincubated for 60 mins followed by ATP addition measured after 1 hr by alpha screen assay).
Chain of RAF proto-oncogene serine/threonine-protein kinase (P04049 whole entry, the tested form may be a part): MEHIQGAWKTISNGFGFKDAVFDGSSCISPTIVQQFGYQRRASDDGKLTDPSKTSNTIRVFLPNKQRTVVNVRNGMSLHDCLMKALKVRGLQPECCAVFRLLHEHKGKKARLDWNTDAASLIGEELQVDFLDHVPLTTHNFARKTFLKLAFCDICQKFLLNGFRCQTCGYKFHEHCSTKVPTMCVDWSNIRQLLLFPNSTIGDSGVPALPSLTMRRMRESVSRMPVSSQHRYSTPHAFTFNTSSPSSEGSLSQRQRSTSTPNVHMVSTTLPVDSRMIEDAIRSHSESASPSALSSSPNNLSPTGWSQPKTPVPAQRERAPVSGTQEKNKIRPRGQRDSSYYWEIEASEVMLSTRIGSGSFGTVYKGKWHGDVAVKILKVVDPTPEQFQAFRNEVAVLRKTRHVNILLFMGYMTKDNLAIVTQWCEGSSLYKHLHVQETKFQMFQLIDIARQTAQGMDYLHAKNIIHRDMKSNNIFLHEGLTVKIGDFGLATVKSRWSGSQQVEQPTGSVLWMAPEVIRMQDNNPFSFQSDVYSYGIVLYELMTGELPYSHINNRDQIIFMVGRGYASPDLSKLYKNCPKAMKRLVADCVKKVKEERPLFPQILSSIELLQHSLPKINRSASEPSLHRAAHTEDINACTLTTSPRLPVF

`Cc1ccc(NC(=O)c2cc(C(F)(F)F)ccn2)cc1-c1cc(OCC(O)CP(=O)(O)O)nc(N2CCOCC2)c1` (stereo unspecified) was tested. Which IC50 did it give?
The IC50 was 0.024 nM.

For `Cc1ccc(NC(=O)c2ccnc(C(C)(F)F)c2)cc1-c1cc(OCCOP(=O)(O)O)nc(N2CCOC[C@H]2C)c1`, which IC50 is on record?
The IC50 was 0.1 nM.

For `Cc1ccc(NC(=O)c2cccc(C(F)(F)F)c2)cc1-c1cc(OCCOP(=O)(O)O)nc(N2CCOC[C@H]2C)c1`, which IC50 is on record?
Its IC50 is 6 nM.

How did the IC50 turn out when `Cc1ccc(NC(=O)c2ccnc(C(F)(F)F)c2)cc1-c1cnc(OCCOP(=O)(O)O)c(N2CCOCC2)c1` was run?
Its IC50 is 0.03 nM.

Which IC50 does the source give for `Cc1ccc(NC(=O)c2ccnc(C(F)(F)F)c2)cc1-c1cc(OCCOP(=O)(O)O)nc(N2CCOCC2)c1` here?
The IC50 was 0.1 nM.

Which IC50 does the source give for `Cc1ccc(NC(=O)c2ccnc(C(F)(F)F)c2)cc1-c1cc(OCCOP(=O)(O)O)nc(N2CCOC[C@H]2C)c1` here?
The IC50 was 2 nM.
